The results in this text go back to patent US5120744A, “Substituted (quinolin-2-yl-methoxy)phenylthioureas” (Bayer Aktiengesellschaft, priority 1989, dated 1992).

The test has as its system lipoxygenase. The experiment in a line: lipoxygenase inhibition: release of leukotriene B4 (LTB4) from polymorphonuclear rat leukocytes (PMN), reverse phase HPLC, after adding substances and Ca ionophore. Conditions: read-out: LO inhibition IC50. It is filed as cell-based. The procedure: As a measure of the lipoxygenase inhibition, the release of leukotriene B4 (LTB4) from polymorphonuclear rat leukocytes (PMN) was determined by means of reverse phase HPLC according to Borgeat, P. et al., Proc. Nat. Acad. Sci. 76, 2148-2152 (1979) after adding substances and Ca ionophore. The in vivo activity of the compounds was determined using the mouse ear inflammation model according to Young, J. M. et al., J. of Investigative Dermatology 82, 367-371, (1984).

By IC50 is commonly meant the concentration that gives 50% inhibition.

Consider `Cc1cc([N+](=O)[O-])ccc1NC(=S)Nc1ccc(OCc2ccc3ccccc3n2)cc1` [Example 3, N-(2-Methyl-4-nitrophenyl)-N'-4-(quinolin-2-yl-methoxy)phenyl-thiourea], for which the concentration for half-maximal inhibition (IC50) worked out at 36 nM.

In the case of `Cc1cc([N+](=O)[O-])c(Cl)cc1NC(=S)Nc1ccc(OCc2ccc3ccccc3n2)cc1` [Example 4, N-(2-Methyl-4-nitro-5-chlorophenyl)-N'-4-(quinolin-2-yl-methyloxy)phenyl-thiourea], the IC50 came out at 33 nM.

Regarding `O=C(NC(=S)Nc1ccc(OCc2ccc3ccccc3n2)cc1)c1ccc(Cl)cc1` [Example 6, N-(4-Chlorobenzoyl)-N'-4-(quinolin-2-yl-methoxy)-phenyl-thiourea], the concentration for half-maximal inhibition (IC50) is 360 nM. In the case of `Cc1cc(Cl)c(Cl)cc1NC(=S)Nc1ccc(OCc2ccc3ccccc3n2)cc1` [Example 5], the IC50 is 410 nM.

`Cc1cc(Cl)ccc1NC(=S)Nc1ccc(OCc2ccc3ccccc3n2)cc1` [Example 8, N-(2-Methyl-4-chlorophenyl)-N'-4-(quinolin-2-yl-methoxy)phenyl-thiourea]: the IC50 stood at 290 nM. As to `N#CC1(NC(=S)Nc2ccc(OCc3ccc4ccccc4n3)cc2)CCCCC1` [Example 7, N-(1-Cyano-cyclohexyl)-N'-4-(quinolin-2-yl-methoxy)phenyl-thiourea], the 50% inhibitory concentration (IC50) was 240 nM.
